Experimental data from patent US5922707A, “Oxazolidinone antibacterial agent with tricyclic substituents” (Pharmacia & Upjohn Company, priority 1997, dated 1999).

Tests used:
Assay type in all cases: cell-based
[1] = test system: Staphylococcus aureus UC ® No. 9213; assay: In vitro antimicrobial activity, MIC by agar dilution, S. aureus 9213; conditions: UC9213, Mueller Hinton agar + 1% Supplement C, 35° C., 18 hours, read-out: Minimum inhibitory concentration (MIC), S. a. 9213
Method: (§1) Antimicrobial activity was tested in vitro using the procedure described in National Committee for Clinical Laboratory Standards. Methods for dilution antimicrobial susceptibility tests for bacteria that grow aerobically--third edition; Approved Standard. NCCLS Document M7-A3. Villanova, Pa.: NCCLS; 1993. Minimum inhibitory concentration (MIC) values were determined by an agar dilution method (1) in which the test medium was Mueller Hinton agar (MHA; Difco Laboratories, Detroit, Mich.) supplemented with 1% Supplement C (Difco). Serial two-fold dilutions of each compound were prepared using 1.0 ml volumes of sterile distilled water. To each 1.0 ml aliquot was added 9.0 ml of molten agar medium. The drug-supplemented agar was mixed, poured into 15×100 mm petri dishes, and allowed to solidify and dry at room temperature prior to inoculation. The test cultures were grown aerobically overnight at 35° C. on MHA; streptococcal strains were grown on Trypticase Soy Blood Agar Base EH (Difco) supplemented with 5% defibrinated sheep blood (BBL, Becton Dickinson Company, Cockeysville, Md.). Colonies were harvested with a sterile swab, and cell suspensions were prepared in Trypticase Soy Broth (TSB; Becton Dickinson Company) to equal the turbidity of a 0.5 McFarland standard. A 1:19 dilution of the suspension was made in TSB; this diluted suspension constituted the inoculum for the assay. The plates containing the drug-supplemented agar were inoculated with a 0.001 ml drop of the cell suspensions using a Steers replicator (Melrose Machine Shop, Woodlyn, Pa.), yielding approximately 10^4 -10^5 cells per spot. The plates were incubated aerobically at 35° C. for 18 hours and the MIC was read as the lowest concentration of drug that inhibited visible growth of the organism. The growth of a single colony was considered to be negative.

[2] = test system: Staphylococcus aureus UC ® No. 6685; assay: In vitro antimicrobial activity, MIC by agar dilution, S. aureus 6685; conditions: UC6685, Mueller Hinton agar + 1% Supplement C, 35° C., 18 hours, read-out: Minimum inhibitory concentration (MIC), S. a. 6685
Method: as §1

[3] = test system: Streptococcus Pneumoniae UC ® No. 9912; assay: In vitro antimicrobial activity, MIC by agar dilution, S. pneumoniae 9912; conditions: UC9912, Mueller Hinton agar + 1% Supplement C, 35° C., 18 hours, read-out: Minimum inhibitory concentration (MIC), S. p. 9912
Method: as §1

Row | MIC [1] | MIC [2] | MIC [3] | SMILES
1 | 8 µg/mL | 4 µg/mL | 1 µg/mL | CC(=O)NC[C@H]1CN(c2ccc3c(c2)OCC2CN(C(=O)OCc4ccccc4)CCN32)C(=O)O1 (stereo partly drawn) [Example 1, 8-[5-(S)-[(acetylamino)methyl]-2-oxo-3-oxazolidinyl]-1,2,4a, 5-tetrahydropyrazino[2,1-c] [1, 4]benzoxazine-3(4 H)-carboxylic acid phenylmethyl ester]
2 | 8 µg/mL | 8 µg/mL | 2 µg/mL | CC(=O)NC[C@H]1CN(c2ccc3c(c2)OCC2CN(C(=O)COCc4ccccc4)CCN32)C(=O)O1 (stereo partly drawn) [Example 2, N-[[3-[1,2,3,4,4a, 5-Hexahydro-3-[(phenylmethoxy)acetyl]pyrazino[2,1-c] [1, 4]benzoxazin-8-yl]-2-oxo-5-(S)-oxazolidinyl]methyl]-acetamide]
3 | 8 µg/mL | 4 µg/mL | 1 µg/mL | COC(=O)N1CCN2c3ccc(N4C[C@H](CNC(C)=O)OC4=O)cc3OCC2C1 (stereo partly drawn) [Example 3, 8-[5-(S)-[(Acetylamino)methyl]-2-oxo-3-oxazolidinyl]-1,2,4a, 5-tetrahydropyrazino[2,1-c] [1, 4]benzoxazine-3(4 H)-carboxylic acid methyl ester]
4 | 8 µg/mL | 8 µg/mL | 1 µg/mL | CC(=O)NC[C@H]1CN(c2ccc3c(c2)OCC2CN(C(=O)CO)CCN32)C(=O)O1 (stereo partly drawn) [Example 4]
5 | 4 µg/mL | 2 µg/mL | < 0.5 µg/mL | CC(=O)NC[C@H]1CN(c2ccc3c(c2)OCC2CN(C(=O)c4ccno4)CCN32)C(=O)O1 (stereo partly drawn) [Example 5, N-[[3-[1,2,3,4,4a, 5-Hexahydro-3-(5-isoxazolylcarbonyl)pyrazino[2,1-c] [1, 4]benzoxazin-8-yl]-2-oxo-5-(S)-oxazolidinyl]methyl]-acetamide]
6 | 8 µg/mL | 4 µg/mL | 1 µg/mL | CC(=O)NC[C@H]1CN(c2ccc3c(c2)OCC2CN(C(=O)c4cc5ccccc5[nH]4)CCN32)C(=O)O1 (stereo partly drawn) [Example 6, N-[[3-[1,2,3,4,4a, 5-hexahydro-3-(1 H-indol-2-ylcarbonyl)pyrazino[2,1-c] [1, 4]benzoxazin-8-yl]-2-oxo-5-(S)-oxazolidinyl]methyl]-acetamide]
7 | 8 µg/mL | 4 µg/mL | 1 µg/mL | CC(=O)NC[C@H]1CN(c2ccc3c(c2)OC[C@H]2CN(C(=O)OCc4ccccc4)CCN32)C(=O)O1 [Example 7a, (R)-8-[5-(S)-[(acetylamino)methyl]-2-oxo-3-oxazolidinyl]-1,2,4a, 5-tetrahydropyrazino[2,1-c][1,4]benzoxazin-3(4 H)-carboxylic acid phenylmethyl ester]
8 | 8 µg/mL | 8 µg/mL | 2 µg/mL | CC(=O)NC[C@H]1CN(c2ccc3c(c2)OC[C@@H]2CN(C(=O)OCc4ccccc4)CCN32)C(=O)O1 [Example 7b, (S)-8-[5-(S)-[(acetylamino)methyl]-2-oxo-3-oxazolidinyl]-1,2,4a, 5-tetrahydropyrazino[2,1-c][1,4]benzoxazin-3(4H)-carboxylic acid phenylmethyl ester]
9 | 4 µg/mL | 4 µg/mL | 0.5 µg/mL | COC(=O)N1CCN2c3ccc(N4C[C@H](CNC(C)=O)OC4=O)cc3OC[C@H]2C1 [Example 8a, (R)-8-[5-(S)-[(acetylamino)methyl]-2-oxo-3-oxazolidinyl]-1,2,4a, 5-tetrahydropyrazino[2,1-c] [1, 4]benzoxazine-3(4 H)-carboxylic acid methyl ester]
10 | 8 µg/mL | 8 µg/mL | 2 µg/mL | COC(=O)N1CCN2c3ccc(N4C[C@H](CNC(C)=O)OC4=O)cc3OC[C@@H]2C1 [Example 8b, (S)-8-[5-(S)-[(acetylamino)methyl]-2-oxo-3-oxazolidinyl]-1,2,4a, 5-tetrahydropyrazino[2,1-c] [1, 4]benzoxazine-3(4 H)-carboxylic acid methyl ester]
11 | 16 µg/mL | 8 µg/mL | 2 µg/mL | CC(=O)NC[C@H]1CN(c2ccc3c(c2)OC[C@H]2CCCCN32)C(=O)O1 [Example 9a, (R)-N-[[[1,2,3,4,4a, 5-hexahydropyridino[2,1-c][1, 4]benzoxazin-8-yl]-2-oxo-5-(S)-oxazolidinyl]methyl]-acetamide]
12 | 8 µg/mL | 4 µg/mL | 2 µg/mL | CC(=O)NC[C@H]1CN(c2ccc3c(c2)OC[C@@H]2CCCCN32)C(=O)O1 [Example 9b, (S)-N-[[[1,2,3,4,4a, 5-hexahydropyridino[2,1-c][1, 4]benzoxazin-8-yl]-2-oxo-5-(S)-oxazolidinyl]methyl]-acetamide]
